The target in series [1] is Glucocorticoid Receptor GR (Homo sapiens (Human), UniProt P04150). Put plainly: Binding activity to glucocorticoid receptor GR (Polarscreen fluorescence polarization kit). Conditions: GR full length, 2 h. As for the experimental part: The binding activity of the compound to GR was determined using the Polarscreen Glucocorticoid Receptor Assay Kit, Red (brand: Thermo, Cat. No: A15898). […] The highest concentration was 100 μM, 8 concentrations in total. […] With the log value of the final concentration of the compound as the X axis and the mP value as the Y axis, data was input into the processing software Graphpad Prism 9, and the EC50 value was calculated by four-parameter fitting
Chain of Glucocorticoid Receptor GR (P04150 whole entry): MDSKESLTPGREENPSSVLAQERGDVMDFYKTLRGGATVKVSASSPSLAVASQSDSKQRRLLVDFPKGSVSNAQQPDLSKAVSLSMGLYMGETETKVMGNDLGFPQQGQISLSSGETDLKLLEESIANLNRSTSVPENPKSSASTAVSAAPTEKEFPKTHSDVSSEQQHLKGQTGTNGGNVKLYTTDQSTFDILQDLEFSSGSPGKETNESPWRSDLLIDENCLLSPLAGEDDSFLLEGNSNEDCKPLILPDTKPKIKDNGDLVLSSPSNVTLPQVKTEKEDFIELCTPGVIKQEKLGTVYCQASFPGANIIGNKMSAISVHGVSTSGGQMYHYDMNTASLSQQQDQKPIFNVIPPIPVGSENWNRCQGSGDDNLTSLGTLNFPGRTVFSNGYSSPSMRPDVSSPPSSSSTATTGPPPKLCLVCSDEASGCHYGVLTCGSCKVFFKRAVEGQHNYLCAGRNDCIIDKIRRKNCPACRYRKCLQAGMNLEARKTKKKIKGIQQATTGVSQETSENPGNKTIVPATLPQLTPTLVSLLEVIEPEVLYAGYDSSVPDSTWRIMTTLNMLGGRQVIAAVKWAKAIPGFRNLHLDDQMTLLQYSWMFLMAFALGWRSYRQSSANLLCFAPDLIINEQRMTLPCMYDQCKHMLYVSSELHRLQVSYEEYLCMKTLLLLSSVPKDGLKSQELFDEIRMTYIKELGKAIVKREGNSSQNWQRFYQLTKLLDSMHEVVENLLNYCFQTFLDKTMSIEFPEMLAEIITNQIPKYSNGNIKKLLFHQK

Series [2] can be described thus: Metabolic stability in human liver microsomes. It counts as in vitro ADME. To be noted: pH 7.4, 1 μM compound, 0.5 mg/mL microsome, NADPH 1 mM, 37° C., read-out: Human liver microsome stability t1/2. An excerpt:
• 1. Human liver microsome (Corning 452117), beagle dog liver microsome (XENOTECH D1000), SD rat liver microsome (XENOTECH R1000), and CD-1 mouse liver microsome (XENOTECH M1000) • 2. Na2HPO4 (Tianjin Guangfu Fine Chemical Research Institute 20180130) • 3. KH2PO4 (Tianjin Guangfu Fine Chemical Research Institute 20180920) • 4. MgCl2 (Tianjin Guangfu Fine Chemical Research Institute 20191216) • 5. NADPH (Solarbio 1216C022) • 6. Positive control compound verapamil (Sigma MKBV4993V) • 7. AB Sciex API4000 liquid chromatography-mass spectrometry system
• 1. Preparation of 100 mM phosphate-buffered saline (PBS): 7.098 g Na2HPO4 was weighed. 500 mL pure water was added. The mixture was dissolved by sonication to give solution A. 3.400 g KH2PO4 was weighed. 250 mL pure water was added. […]
All data were calculated by Microsoft Excel software. The peak area was detected through an extracted ion chromatogram. The in vitro half-life (t1/2) of the compound was determined by linear fitting of the natural logarithm of compound elimination percentage over time.
In vitro half-life (t1/2) was calculated by the slope k: […]
The in vitro intrinsic clearance (in μL/min/mg protein) was calculated using the following formula: […]
For orientation: Liver microsomes are vesicles of endoplasmic reticulum, rich in cytochrome P450 enzymes.

A further series deals with CYP2D6 (Homo sapiens (Human), UniProt P10635). Put plainly: Inhibition of CYP2D6 enzymatic activity in human liver microsomes. The format is in vitro ADME. Conditions: human liver microsome, substrate dextromethorphan, 20 min. As for the experimental part:
The inhibition of CYP2C9 and CYP2D6 activity by the compound of the present invention was determined using the following method.
• 1. Human liver microsome (Corning 452117) • 2. NADPH (Solarbio 705Y021) • 3. Positive substrates diclofenac (Sigma SLBV3438) and dextromethorphan (TRC 3-EDO-175-1) • 4. Positive inhibitors sulfaphenazole (D. Ehrenstorfer GmbH 109012) and quinidine (TCI WEODL-RE) • 5. AB Sciex Triple Quad 5500 liquid chromatography-mass spectrometry system
• 1. Preparation of 100 mM phosphate-buffered saline (PBS): 7.098 g Na2HPO4 was weighed. 500 mL pure water was added. The mixture was dissolved by sonication to give solution A. 3.400 g KH2PO4 was weighed. 250 mL pure water was added. The mixture was dissolved by sonication to give solution B. The solution A was placed in a stirrer, and the solution B was slowly added until the pH reached 7.4, so that the 100 mM PBS buffer was prepared. • 2. A 10 mM NADPH solution was prepared with a 100 mM PBS buffer. A 10 mM stock solution of the compound of the present invention was diluted with DMSO to give a compound working solution at a concentration of 200×(6000, 2000, 600, 200, 60, 20, and 0 μM). […]
The reduction of metabolite production in the treatment groups versus the control group was compared by the peak area ratios of the sample to the internal standard, and the IC50 value was calculated using Excel XLfit 5.3.1.3.

Structures are written as SMILES.

Chain of CYP2D6 (P10635 whole entry): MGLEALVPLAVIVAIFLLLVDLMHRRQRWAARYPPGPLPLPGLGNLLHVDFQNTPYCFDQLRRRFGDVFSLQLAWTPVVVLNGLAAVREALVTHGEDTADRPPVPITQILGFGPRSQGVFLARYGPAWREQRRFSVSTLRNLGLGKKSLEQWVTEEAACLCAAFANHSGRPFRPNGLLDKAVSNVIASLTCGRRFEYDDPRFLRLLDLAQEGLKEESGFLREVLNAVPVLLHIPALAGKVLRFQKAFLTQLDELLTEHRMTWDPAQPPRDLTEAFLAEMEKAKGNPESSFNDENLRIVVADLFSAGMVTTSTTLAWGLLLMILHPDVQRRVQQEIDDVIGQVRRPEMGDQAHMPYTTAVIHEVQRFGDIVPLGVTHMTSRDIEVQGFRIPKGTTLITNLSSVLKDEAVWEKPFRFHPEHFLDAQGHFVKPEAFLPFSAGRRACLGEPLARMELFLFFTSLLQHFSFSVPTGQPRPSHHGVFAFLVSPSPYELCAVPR

In general, EC50 refers to the midpoint of the concentration-response curve. In general, IC50 refers to the concentration that gives 50% inhibition. A higher IC50 goes with lower potency. As for `C[C@]12C=CC(=O)C=C1CC[C@@H]1[C@@H]2[C@@H](O)C[C@@]2(C)[C@H]1C[C@H]1O[C@@H](c3ccc(Cc4cc(N)c5c(c4)CCO5)cc3)O[C@]12C(=O)CO` [Compound 009, (6aR,6bS,7S,8aS,8bS,10R,11aR,12aS,12bS)-10-(4-((7-amino-2,3-dihydrobenzofuran-5-yl)methyl)phenyl)-7-hydroxy-8b-(2-hydroxyacetyl)-6a,8a-dimethyl-6a,6b,7,8,8a,8b,11a,12,12a,12b-decahydro-1H-naphtho[2′,1′:4,5]indeno[1,2-d][1,3]dioxolan-4(2H)-one], the EC50 in series [1] was 20.2 nM. The half-life at 1 μM in series [2] amounted to 37.8 min. On CYP2D6, this molecule yielded an IC50 above 50000 nM.
